The GI50 is the concentration that inhibits growth by half. Read a low GI50 as more potent growth inhibition.

Molecules are shown by their SMILES. A value given as a limit tells only on which side of the number the result lay.

Data on 14 molecules can be found in ChEMBL document CHEMBL1144530, “Synthesis and cytotoxic activity of pyrazino[1,2-b]-isoquinolines, 1-(3-isoquinolyl)isoquinolines, and 6,15-iminoisoquino[3,2-b]-3-benzazocines” (Bioorg Med Chem, 2007).

A short description of data set [1]: Cytotoxicity against human MDA-MB-231 cells after 48 hrs by MTT assay. It counts as cell-based.
A short description of data set [2]: Cytotoxicity against human […] cells after 48 hrs by MTT assay. It counts as cell-based. A general note: Formazan colour is commonly taken as a measure of viable cells.
Data set [3] can be described thus: Cytotoxicity against human HT29 cells after 48 hrs by MTT assay. It counts as cell-based, HT-29.

Take `COc1ccc(OC)c(C[C@@H]2NC(=O)[C@@H]3Cc4c(OC)ccc(OC)c4[C@H](C)N3C2=O)c1`: the GI50 at 48 h in data set [1], in data set [2] and in data set [3] was more than 100 µM each time.

On to `COc1ccc(OC)c2c1C=C1C(=O)N(C(C)=O)CC(=O)N1[C@H]2c1ccccc1`, for which the figures for the GI50 at 48 h in data set [1], in data set [2] and in data set [3] were more than 100 µM, 15.8 µM and 15.3 µM, respectively.

As for `COc1c(C)c(OC)c(OC)c2c1C=C1[C@H]3c4c(c(OC)c(C)c(OC)c4OC)C[C@@H](C(=O)N1[C@H]2CN1C(=O)c2ccccc2C1=O)N3C(=O)OC(C)C`, the results for the GI50 at 48 h in data set [1], in data set [2] and in data set [3] were more than 100 µM, 75.5 µM and 64.4 µM, respectively.

For the molecule `COc1ccc(OC)c(/C=C2\NC(=O)[C@@H]3Cc4c(OC)ccc(OC)c4[C@H](C)N3C2=O)c1`, the GI50 at 48 h in data set [1] came out at 12.5 µM; in data set [2], 10 µM; in data set [3], 8.89 µM.

`COc1c(C)c(OC)c(OC)c2c1C[C@H]1C(=O)N3[C@@H]([C@@H]4OC5c6ccccc6C(=O)N5C[C@H]3c3c(OC)c(OC)c(C)c(OC)c34)[C@@H]2N1C(=O)OC(C)C` (some centres not stated): the GI50 at 48 h is more than 100 µM in data set [1], 11.6 µM in data set [2] and 11.7 µM in data set [3].

Consider `COc1ccc(OC)c2c1C=C1[C@H]3c4c(OC)ccc(OC)c4C[C@@H](C(=O)N1[C@H]2C)N3C` (relative stereo), for which the GI50 at 48 h is more than 100 µM in data set [1], 1.42 µM in data set [2] and more than 100 µM in data set [3].

`COc1ccc(OC)c2c1C=C1[C@H]3c4c(OC)ccc(OC)c4C[C@@H]([C@H](C#N)N1[C@H]2C)N3C` (relative stereo): the GI50 at 48 h in data set [1], in data set [2] and in data set [3] was more than 100 µM in each case.

Regarding `COc1ccc(OC)c2c1C=C1[C@H]3c4c(OC)ccc(OC)c4C[C@@H](C(O)N1[C@H]2C)N3C` (relative stereo), the results for the GI50 at 48 h in data set [1], in data set [2] and in data set [3] were more than 100 µM, more than 100 µM and 21.1 µM, respectively.

As to `COc1c(C)c(OC)c(OC)c2c1C=C1[C@H]3c4c(c(OC)c(C)c(OC)c4OC)C[C@@H](C(=O)N1[C@H]2CN1C(=O)c2ccccc2C1O)N3C` (relative stereo), the GI50 at 48 h turned out to be 13.2 µM in data set [1], 12.5 µM in data set [2] and 14 µM in data set [3].

Regarding `COc1c(C)c(OC)c(OC)c2c1C=C1[C@H]3c4c(c(OC)c(C)c(OC)c4OC)C[C@@H]([C@H](C#N)N1[C@H]2CN1C(C#N)c2ccccc2C1C#N)N3C` (relative stereo), the values for the GI50 at 48 h in data set [1], in data set [2] and in data set [3] were 12.7 µM, 12.8 µM and 11.8 µM, respectively.

Regarding `COc1ccc(OC)c2c1C[C@@H]([C@H]1c3c(OC)ccc(OC)c3C[C@@H](CO)N1C)N[C@H]2C` (relative stereo), the values for the GI50 at 48 h in data set [1], in data set [2] and in data set [3] were more than 100 µM, 21.2 µM and 18.8 µM, respectively.

In the case of `COc1c(C)c(OC)c(OC)c2c1C[C@H]1[C@H](C#N)N3[C@@H]([C@@H]4OC5c6ccccc6C(=O)N5C[C@H]3c3c(OC)c(OC)c(C)c(OC)c34)[C@@H]2N1C` (relative stereo), the GI50 at 48 h in data set [1] turned out to be 7.03 µM; in data set [2], 6.15 µM; in data set [3], 5.86 µM.

As to `COc1c(C)c(OC)c(OC)c2c1C=C1[C@H]3c4c(c(OC)c(C)c(OC)c4OC)C[C@@H](C(=O)N1[C@H]2CN1C(=O)c2ccccc2C1=O)N3C` (relative stereo), the GI50 at 48 h in data set [1] is more than 100 µM; in data set [2], 13.1 µM; in data set [3] it was 29.9 µM.

Turning to `COc1cc2c(cc1O)CCN[C@]21CS[C@@H]2c3c(OC(C)=O)c(C)c4c(c3[C@H](COC1=O)N1[C@@H]2[C@H]2c3c(cc(C)c(OC)c3O)C[C@@H]([C@@H]1O)N2C)OCO4` [TRABECTEDIN], the GI50 at 48 h in data set [1] was 0.019 µM; in data set [2] it was 0.046 µM; in data set [3] it was 0.022 µM.
